According to PubChem BioAssay (NCI):
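Test compounds were applied to cells in 96-well plates for 48 hours at 5 doses. The concentration for full growth arrest is given as TGI.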

Experiments:
Experiment in all cases: NCI tumour cell line growth inhibition, 48 h
[1] = tested on: NCI-H226 lung
[2] = tested on: HOP-18 NSCLC
[3] = tested on: KM12 colon
[4] = tested on: RXF-631 renal
[5] = tested on: NCI-H23 lung
[6] = tested on: UACC-257 melanoma
[7] = tested on: HOP-92 NSCLC
[8] = tested on: SF-268 CNS
[9] = tested on: COLO 205 colon
[10] = tested on: OVCAR-8 ovarian
[11] = tested on: OVCAR-5 ovarian
[12] = tested on: SNB-78 CNS
[13] = tested on: HOP-62 NSCLC
[14] = tested on: EKVX NSCLC
[15] = tested on: LOX IMVI melanoma
[16] = tested on: 786-0 renal
[17] = tested on: HCC-2998 colon
[18] = tested on: IGROV1 ovarian
[19] = tested on: SF-295 CNS
[20] = tested on: ACHN renal
[21] = tested on: OVCAR-3 ovarian
[22] = tested on: OVCAR-4 ovarian
[23] = tested on: HCT-116 colon
[24] = tested on: XF 498 CNS
[25] = tested on: M19-MEL melanoma
[26] = tested on: SK-MEL-28 melanoma
[27] = tested on: UACC-62 melanoma
[28] = tested on: DMS 114 small cell lung
[29] = tested on: M14 melanoma
[30] = tested on: SK-MEL-5 melanoma
[31] = tested on: TK-10 renal
[32] = tested on: RXF 393 renal
[33] = tested on: SW-620 colon
[34] = tested on: A498 renal
[35] = tested on: NCI-H460 lung
[36] = tested on: SNB-75 CNS
[37] = tested on: LXFL 529 NSCLC
[38] = tested on: SN12C renal
[39] = tested on: HT29 colon
[40] = tested on: DLD-1 colon
[41] = tested on: KM20L2 colon
[42] = tested on: U251 CNS
[43] = tested on: MALME-3M melanoma
[44] = tested on: UO-31 renal
[45] = tested on: HL-60(TB) leukemia
[46] = tested on: A549 NSCLC
[47] = tested on: SK-MEL-2 melanoma
[48] = tested on: CCRF-CEM leukemia
[49] = tested on: MOLT-4 leukemia
[50] = tested on: SNB-19 CNS
[51] = tested on: RPMI-8226 leukemia
[52] = tested on: SR leukemia
[53] = tested on: K-562 leukemia
[54] = tested on: HCT-15 colon
[55] = tested on: NCI-H522 lung
[56] = tested on: CAKI-1 renal
[57] = tested on: SK-OV-3 ovarian
[58] = tested on: SF-539 CNS
[59] = tested on: DMS 273 small cell lung

Measured: TGI

CCc1ccccc1NC(=O)C(=O)C(C#N)c1ccccc1Cl (stereo not given)
10.9 µM: [15]
33.1 µM: [35]
6.31 µM: [31]
not listed: [52] | [53] | [54] | [55] | [56] | [57] | [58] | [59]
> 100 µM: all other assays above

COc1cccc2c1C(=O)c1c(O)c3c(c(O)c1C2=O)C[C@@](O)(C(C)=O)CC3S(=O)(=O)O (stereo not given in full)
> 93 µM: [36]
> 100 µM: all other assays above
